According to patent US20200171056A1, “SULFONYLUREA COMPOUNDS IN THE TREATMENT OF DISEASE ASSOCIATED WITH UV-INDUCED DAMAGE” (CeMM - Forschungszentrum für Molekulare Medizin GmbH, priority 2017, published 2020):

Columns and labels:
Type in all cases: cell-based, human
ΔXPA cells = test: Long-term colony formation assay after UV irradiation; conditions: 0.5 mM acetohexamide for 6 hours, then UV; 10 days in culture (FIG. 1E)
Description: A. Schematic representation of the experimental setup used to perform the high-throughput drug screen, where drugs were used at five-times maximal plasma concentration (CLOUD; CeMM library of unique drugs). B. Bubble plot displaying the drugs used plotted against cell viability. Light grey bubbles indicate wildtype (WT) cells, dark grey bubbles indicate XPA-deficient cells (ΔXPA). […] C. Chemical structure of acetohexamide. D. Dose-response curve of WT and ΔXPA cells treated with or without 0.5 mM acetohexamide for 6 hours, followed by UV irradiation. Survival was assessed after 3 days, using CellTiter-Glo. […] Error bars indicate SEM (n=3). E. Colony formation using the same conditions indicated in (D), where cells were kept in culture for 10 days following UV irradiation, following which they were fixed and stained.
Cells were treated with UV at different doses with or without drug pre-treatment and then seeded into 6-well plates, at a density of 1,000 cells/well, in duplicates for 2 weeks until visible colonies were formed. Then, the medium was removed, colonies were washed with PBS and fixed using 3.7% paraformaldehyde (PFA) for 1 hour. Subsequently, the PFA was removed and colonies were stained with 0.1% crystal violet in 5% ethanol solution for 1 hour. Next, the staining solution was removed and the wells were washed, imaged and quantified using CellProfiler.

CPDs in XPA^Δ/Δ cells = test: Immunofluorescence for cyclobutane pyrimidine dimers; conditions: 0.5 mM for 6 hours
Description: A. Dose-response curve of WT and ΔXPA cells treated with or without 0.5 mM acetohexamide for 6 hours, followed by illudin S treatment. Survival was assessed after 3 days using CellTiter-Glo. B. Colony formation of WT fibroblasts (BJ) and XPA-patient derived fibroblasts (XPA^Δ/Δ) treated with or without 0.5 mM acetohexamide for 6 hours, followed by UV irradiation (as indicated) and then kept in culture for 10 days. C. WT BJ and XPA^Δ/Δ fibroblastoid cells were treated with 0.5 mM acetohexamide for 6 hours, irradiated with 15 J/M^2 and then fixed and immunostained with an anti-cyclobutane pyrimidine dimer (CPD) antibody at the indicated times. Nuclear DNA was counterstained with DAPI. Scale bar, 10 μm. D. Scatter plot displaying the quantification of CPD intensities per nucleus of WT and XPA^Δ/Δ cells in the presence or absence of 0.5 mM acetohexamide, of more than 100 cells. Red lines within each column represent median intensities. A.u.=arbitrary unit.
For measurement of cyclobutane pyrimidine dimers (CPDs), cells were seeded onto coverslips (VWR) in 5 cm dishes. On the following day, cells were treated as indicated. Next, they were washed twice with PBS and fixed with 4% paraformaldehyde (PFA) for 10 minutes at room temperature (RT), then permeabilized with 0.5% Triton X-100 in PBS for 5 minntes at RT. […] Quantification was performed using CellProfiler.

[1] = system: MUTYH-deficient (ΔMUTYH) cells; test: Survival of MUTYH-deficient cells after UV irradiation; conditions: pre-incubation with 0.5 mM acetohexamide; 3 days (FIG. 3B)
Description: FIG. 3. Loss of MUTYH mimics acetohexamide function A. Bubble plot displaying the percentage of rescue, defined as the difference in survival of a given cell line treated with acetohexamide compared to untreated, following UV irradiation. The light grey, dark grey bubbles highlight ΔMUTYH, ΔXPA […], and black bubbles indicate the rest of the knockout cell lines and WT HAP1. The size of the bubbles indicates the significance as log10 (p-value). BER: base excision repair; NER: nucleotide excision repair; DSBR; double-strand break repair; MMR: mis-match repair; FA: Fanconi aneamia; DR; direct reversal; TLS; translesion synthesis. B. Survival of WT and MUTYH-deficient (ΔMUTYH) cells with or without 0.5 mM acetohexamide treatment, followed by UV irradiation, as assessed after 3 days using CellTitre-Glo. Loss of MUTYH protein was confirmed by immunoblotting using an anti-MUTYH antibody. ACTIN was used as a loading control. C. Deletion of MUTYH in WT HAP1 or an XPA-deficient background was confirmed by immunoblotting using an anti-MUTYH antibody. TUBULIN was used as a loading control. […]
For UV irradiation, cells were washed with PBS, trypsinized, counted and distributed in equal number then irradiated with different doses of UV as indicated. […] After 72 hours, survival was measured using Cell Titer-Glo (Promega). […]

CC(=O)c1ccc(S(=O)(=O)NC(=O)NC2CCCCC2)cc1 [acetohexamide]
UV sensitivity of ΔXPA cells, long-term colony formation assay (ΔXPA cells): alleviated the UV sensitivity of ΔXPA cells almost to the level of wildtype cells | initial amount of CPDs (CPDs in XPA^Δ/Δ cells; 15 J/M^2 (FIG. 2C-D)): did not affect the initial amount of CPDs | clearance of CPDs (CPDs in XPA^Δ/Δ cells; XPA^Δ/Δ cells, 15 J/M^2, 24 hours post UV (FIG. 2C-D)): led to the clearance of CPDs in XPA^Δ/Δ cells | survival of ΔMUTYH cells after UV [1]: did not have a noticeable effect on survival
